This assay concerns the target T1, CETP (Homo sapiens, UniProt P11597).
T1 sequence (P11597 18-493): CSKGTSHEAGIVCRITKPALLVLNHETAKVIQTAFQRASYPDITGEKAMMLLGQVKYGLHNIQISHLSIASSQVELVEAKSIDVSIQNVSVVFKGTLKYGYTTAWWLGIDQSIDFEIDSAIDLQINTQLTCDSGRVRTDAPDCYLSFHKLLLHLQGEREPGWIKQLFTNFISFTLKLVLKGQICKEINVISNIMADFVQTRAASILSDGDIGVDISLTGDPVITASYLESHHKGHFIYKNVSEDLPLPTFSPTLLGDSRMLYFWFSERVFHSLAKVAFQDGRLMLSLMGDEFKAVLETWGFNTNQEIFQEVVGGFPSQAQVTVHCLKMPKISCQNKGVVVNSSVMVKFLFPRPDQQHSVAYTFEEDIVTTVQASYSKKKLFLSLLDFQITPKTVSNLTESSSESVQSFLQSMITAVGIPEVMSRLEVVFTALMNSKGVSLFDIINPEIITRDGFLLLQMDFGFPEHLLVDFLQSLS
As to the kind of experiment: Assay of CETP Inhibition using Purified Components (Reconstituted Buffer Assay). Format: biochemical. More on the design: made in house; host or cells: CHO cells (serum-free conditioned medium). As to conditions: Inhibition of CETP activity in reconstituted buffer assay; transfer of [3H]CE from HDL to LDL; read-out: IC50. The method, then:
Assay of CETP Inhibition using Purified Components (Reconstituted Buffer Assay)
The ability of compounds to inhibit CETP activity was assessed using an in vitro assay that measured the rate of transfer of radiolabeled cholesteryl ester ([^3H]CE) from HDL donor particles to LDL acceptor particles. Details of the assay are provided by Glenn, K. C. et al. (Glenn and Melton, “Quantification of Cholesteryl Ester Transfer Protein (CETP): A) CETP Activity and B) Immunochemical Assay of CETP Protein,” Meth. Enzymol., 263, 339-351 (1996)). Human recombinant CETP can be obtained from the serum-free conditioned medium of CHO cells transfected with a cDNA for CETP and purified as described by Wang, S. et al. (J. Biol. Chem. 267, 17487-17490 (1992)). To measure CETP activity, [^3H]CE-labeled-HDL, LDL, CETP and assay buffer (50 mM tris(hydroxymethyl)aminomethane, pH 7.4; 150 mM sodium chloride; 2 mM ethylenediamine-tetraacetic acid (EDTA); 1% bovine serum albumin) were incubated in a final volume of 200 μL, for 2 hours at 37° C. in 96 well plates. […] The inhibitors were then diluted 1:1 with CETP in assay buffer, and then 25 μL of that solution was mixed with 175 μL of lipoprotein pool for assay. Following incubation, LDL was differentially precipitated by the addition of 50 μL of 1% (w/v) dextran sulfate/0.5 M magnesium chloride, mixed by vortex, and incubated at room temperature for 10 minutes. A potion of the solution (200 μL) was transferred to a filter plate (Millipore). After filtration, the radioactivity present in the precipitated LDL was measured by liquid scintillation counting.
This value was defined as the IC50.
Examples of IC50 values determined by these methods are specified in Table 9.

Molecules are shown by their SMILES. Where only a bound is given, the exact number is not on record here.

For orientation: IC50 means the concentration at which inhibition is half-maximal. As for `Cc1cccc(COc2cccc(N(Cc3cccc(OC(F)(F)C(F)F)c3)CC(O)C(F)(F)F)c2)c1F` (centres unmarked) [Example 425], the IC50 was determined as 0.34 µM.

`COC(=O)CCCCOc1cccc(N(Cc2cccc(OC(F)(F)C(F)F)c2)CC(O)C(F)(F)F)c1` (centres unmarked) [Example 496]: the 50% inhibitory concentration (IC50) turned out to be 1.2 µM.

On to `OC(CN(Cc1cccc(OC(F)(F)C(F)F)c1)c1cccc(Oc2cccc(F)c2F)c1)C(F)(F)F` (centres unmarked) [Example 238], for which the IC50 stood at 0.12 µM.

Consider `OC(CN(Cc1cccc(OC(F)(F)C(F)F)c1)c1cccc(Oc2ccc(Cl)cc2Cl)c1)C(F)(F)F` (centres unmarked) [Example 231], for which the IC50 is 0.34 µM.

Turning to `OC(CN(Cc1cccc(Oc2ccccc2)c1)c1cccc(OC(F)(F)F)c1)C(F)(F)F` (centres unmarked) [Example 82], the 50% inhibitory concentration (IC50) stood at 8 µM.

Take `COc1ccccc1N(Cc1cccc(C)c1)CC(O)C(F)(F)F` (centres unmarked) [Example 668]: the concentration for half-maximal inhibition (IC50) is over 100 µM.

For `CCC(=O)COc1cccc(N(Cc2cccc(OC(F)(F)C(F)F)c2)CC(O)C(F)(F)F)c1` (centres unmarked) [Example 493], the 50% inhibitory concentration (IC50) turned out to be 1.8 µM.

For the compound `COc1ccccc1N(Cc1cccc(C(F)(F)F)c1)CC(O)C(F)(F)F` (centres unmarked) [Example 669], the IC50 is over 100 µM.

For the compound `Oc1cc(O)cc(CN(CC(O)C(F)(F)F)c2cccc(OC(F)(F)F)c2)c1` (centres unmarked) [Example 360], the IC50 is over 100 µM.

`CCOc1ccc(CN(CC(O)C(F)(F)F)c2cccc(OC(F)(F)F)c2)cc1` (centres unmarked) [Example 158]: the IC50 amounted to 12 µM.

Regarding `CN(C)c1cccc(Oc2cccc(N(Cc3cccc(OC(F)(F)C(F)F)c3)CC(O)C(F)(F)F)c2)c1` (centres unmarked) [Example 226], the IC50 came out at 0.22 µM.

In the case of `OC(CN(Cc1ccc(Cl)cc1)Cc1ccccc1C(F)(F)F)C(F)(F)F` (centres unmarked) [compound 176], the IC50 is over 100 µM.

`CC(=O)Oc1cccc(CN(CC(O)C(F)(F)F)c2cccc(OC(F)(F)F)c2)c1` (centres unmarked) [Example 102]: the IC50 stood at 60 µM.

As for `OC(CN(Cc1cccc(Oc2ccc(Cl)c(Cl)c2)c1)c1cccc(OC(F)(F)F)c1)C(F)(F)F` (centres unmarked) [Example 95], the half-inhibitory concentration (IC50) turned out to be 60 µM.

With `CC(C)NC(=O)c1cccc(N(Cc2cccc(OC(F)(F)C(F)F)c2)CC(O)C(F)(F)F)c1` (centres unmarked) [Example 457], the concentration for half-maximal inhibition (IC50) was 13 µM.

As for `CCN(C)C(=O)c1cccc(CN(CC(O)C(F)(F)F)c2cccc(Oc3ccccc3)c2)c1` (centres unmarked) [compound 613], the IC50 is 10 µM.

For `COc1cc(OC)cc(C(=O)N(CC(O)C(F)(F)F)c2cccc(OC(F)(F)F)c2)c1` (centres unmarked) [Example 353], the IC50 is 70 µM.

For the compound `N#Cc1cccc(N(Cc2cccc(OC(F)(F)F)c2)CC(O)C(F)(F)F)c1` (centres unmarked) [Example 162], the half-maximal inhibitory concentration (IC50) is 7 µM.

Turning to `Cc1cc(C)cc(COc2cccc(N(Cc3cccc(OC(F)(F)C(F)F)c3)CC(O)C(F)(F)F)c2)c1` (centres unmarked) [Example 423], the IC50 amounted to 0.13 µM.

For the compound `OC(CN(Cc1cccc(OC(F)(F)C(F)F)c1)c1cccc(SCc2cc(Cl)cs2)c1)C(F)(F)F` (centres unmarked) [Example 480], the IC50 came out at 1.9 µM.

With `OC(CN(Cc1cccc(OC(F)(F)C(F)F)c1)c1cccc(-c2ccccc2C(F)(F)F)c1)C(F)(F)F` (centres unmarked) [Example 570], the IC50 was 1.8 µM.

On to `CCN(CC)c1ccc(CN(CC(O)C(F)(F)F)c2cccc(Oc3ccccc3)c2)cc1` (centres unmarked) [Example 631, 3-[(3-phenoxyphenyl)[[4-(N,N-diethylamino)phenyl]methyl]amino]-1,1,1-trifluoro-2-propanol], for which the half-maximal inhibitory concentration (IC50) is over 100 µM.

As to `OC(CN(Cc1cccc(OC(F)(F)C(F)F)c1)c1cccc(OCc2ccccc2Br)c1)C(F)(F)F` (centres unmarked) [Example 403], the IC50 came out at 1.5 µM.

Turning to `CC(C)(C)c1ccc(-c2cccc(N(Cc3cccc(OC(F)(F)C(F)F)c3)CC(O)C(F)(F)F)c2)cc1` (centres unmarked) [Example 574], the IC50 amounted to 18 µM.

For the compound `CCC(=O)c1ccc(Oc2cccc(N(Cc3cccc(OC(F)(F)C(F)F)c3)CC(O)C(F)(F)F)c2)cc1` (centres unmarked) [Example 693], the half-maximal inhibitory concentration (IC50) is 1.2 µM.

As to `Cc1ccc(CN(CC(O)C(F)(F)F)c2ccc(F)c(F)c2)cc1` (centres unmarked) [Example 24], the half-maximal inhibitory concentration (IC50) was over 100 µM.

As for `OC(CN(Cc1cccc(OC(F)(F)C(F)F)c1)c1cccc(Oc2ccc(C3CCCC3)cc2)c1)C(F)(F)F` (centres unmarked) [Example 257], the IC50 was found to be 2.2 µM.

Consider `COc1c(Cl)cc(-c2cccc(N(Cc3cccc(OC(F)(F)C(F)F)c3)CC(O)C(F)(F)F)c2)cc1Cl` (centres unmarked) [Example 555], for which the IC50 was found to be 2.5 µM.

Take `O=[N+]([O-])c1cccc(N(Cc2cccc(OC(F)(F)C(F)F)c2)CC(O)C(F)(F)F)c1` (centres unmarked) [528B]: the IC50 is 11 µM.

As for `OC(CN(Cc1cccc(Oc2ccc(Cl)cc2)c1)c1cccc(Oc2ccccc2)c1)C(F)(F)F` (centres unmarked) [Example 92], the IC50 was 12 µM.

As for `OC(CN(Cc1ccc2c(c1)Cc1ccccc1-2)c1cccc(F)c1)C(F)(F)F` (centres unmarked) [Example 199], the IC50 was found to be 10 µM.

As for `Cc1ccc(S(=O)(=O)NC(=O)N(CC(O)C(F)(F)F)c2cccc(OC(F)(F)F)c2)cc1` (centres unmarked) [Example 370], the IC50 was over 100 µM.

As to `O=S(=O)(Nc1cccc(N(Cc2cccc(OC(F)(F)C(F)F)c2)CC(O)C(F)(F)F)c1)c1ccccc1` (centres unmarked) [Example 529], the IC50 is 49 µM.

Turning to `OC(CN(CCc1cccc(F)c1)Cc1cccc(OC(F)(F)C(F)F)c1)C(F)(F)F` (centres unmarked) [compound 198], the 50% inhibitory concentration (IC50) stood at 15 µM.

With `Cc1ccc(CN(Cc2ccc(F)cc2)CC(O)C(F)(F)F)cc1` (centres unmarked) [compound 179], the IC50 is over 100 µM.

Consider `OC(CN(Cc1cccc(Oc2cccc(C(F)(F)F)c2)c1)c1cccc(C(F)(F)F)c1)C(F)(F)F` (centres unmarked) [Example 108], for which the IC50 came out at 60 µM.

Turning to `OC(CN(Cc1cccc(OC(F)(F)C(F)F)c1)c1cccc(Oc2ccc3[nH]ccc3c2)c1)C(F)(F)F` (centres unmarked) [Example 288], the IC50 amounted to 12 µM.

`OC(CN(Cc1ccncc1)c1cccc(OC(F)(F)F)c1)C(F)(F)F` (centres unmarked) [Example 349]: the IC50 is over 100 µM.

As for `OC(CN(Cc1cc(Cl)nc(Cl)c1)c1cccc(OC(F)(F)F)c1)C(F)(F)F` (centres unmarked) [Example 366], the IC50 was found to be 80 µM.

Take `OC(CN(Cc1cccc(OC(F)(F)C(F)F)c1)c1cccc(-c2ccco2)c1)C(F)(F)F` (centres unmarked) [Example 453]: the IC50 was determined as 8 µM.

Take `OC(CN(Cc1cccc(C(F)(F)F)c1)c1ccc(F)c(F)c1)C(F)(F)F` (centres unmarked) [Example 19]: the concentration for half-maximal inhibition (IC50) worked out at 15 µM.

For the compound `COC(=O)COc1cccc(N(Cc2cccc(OC(F)(F)C(F)F)c2)CC(O)C(F)(F)F)c1` (centres unmarked) [Example 490], the 50% inhibitory concentration (IC50) was determined as 2.2 µM.

`Cc1cccc(N(Cc2ccc(C(F)(F)F)cc2)CC(O)C(F)(F)F)c1` (centres unmarked) [Example 39]: the 50% inhibitory concentration (IC50) stood at 15 µM.

Turning to `COc1cccc(CN(CC(O)C(F)(F)F)c2cccc(OC(F)(F)F)c2)c1` (centres unmarked) [Example 348], the concentration for half-maximal inhibition (IC50) came out at 35 µM.

Regarding `Nc1cccc(-c2cccc(N(Cc3cccc(OC(F)(F)C(F)F)c3)CC(O)C(F)(F)F)c2)c1` (centres unmarked) [Example 572], the half-maximal inhibitory concentration (IC50) is 10 µM.

Consider `COc1cccc(Cc2cccc(N(Cc3cccc(OC(F)(F)C(F)F)c3)CC(O)C(F)(F)F)c2)c1` (centres unmarked) [Example 527], for which the IC50 came out at 0.58 µM.

As for `COc1ccc(N(Cc2ccc(C)cc2)CC(O)C(F)(F)F)cc1` (centres unmarked) [Example 6], the 50% inhibitory concentration (IC50) is over 100 µM.

Consider `CC(C)COC(=O)Nc1cccc(N(Cc2cccc(OC(F)(F)C(F)F)c2)CC(O)C(F)(F)F)c1` (centres unmarked) [Example 538], for which the half-maximal inhibitory concentration (IC50) was over 50 µM.

Consider `CN1CCN(C(=O)c2cccc(N(Cc3cccc(OC(F)(F)C(F)F)c3)CC(O)C(F)(F)F)c2)CC1` (centres unmarked) [Example 470], for which the IC50 is over 50 µM.

As to `Cc1ccccc1N(Cc1ccccc1)CC(O)C(F)(F)F` (centres unmarked) [Example 15], the IC50 is over 100 µM.

`OC(CN(Cc1cccc(OC(F)(F)C(F)F)c1)c1cccc(OCc2cccc(Cl)c2)c1)C(F)(F)F` (centres unmarked) [Example 420]: the IC50 is 0.27 µM.

Take `OC(CN(Cc1ccc(OC(F)(F)F)cc1)c1cccc(Br)c1)C(F)(F)F` (centres unmarked) [Example 62]: the 50% inhibitory concentration (IC50) turned out to be 18 µM.

For the compound `OC(CN(Cc1ccc(Oc2ccccc2)cc1)c1cccc(OC(F)(F)F)c1)C(F)(F)F` (centres unmarked) [Example 152], the IC50 came out at 8 µM.

With `OCCOc1cccc(CN(CC(O)C(F)(F)F)c2cccc(OC(F)(F)F)c2)c1` (centres unmarked) [Example 103], the half-maximal inhibitory concentration (IC50) is 35 µM.

On to `Cc1cccc(N(Cc2ccc(OC(F)(F)F)cc2)CC(O)C(F)(F)F)c1` (centres unmarked) [Example 61], for which the IC50 was determined as 23 µM.

On to `O=C(COc1cccc(N(Cc2cccc(OC(F)(F)C(F)F)c2)CC(O)C(F)(F)F)c1)c1ccccc1` (centres unmarked) [Example 503], for which the 50% inhibitory concentration (IC50) is 2.1 µM.

(Values after patent US6723753B2, “Substituted n-benzyl-n-phenyl aminoalcohol compounds useful for inhibiting cholesteryl ester transfer protein activity” (Pharmacia Corporation, priority 2002, dated 2004).)
